Test results from patent US5164295A, “Method for identifying amyloid protein-extracellular matrix protein affinity altering compounds” (The Upjohn Company, priority 1991, dated 1992).
Where “and” joins values, the source holds several entries; their conditions need not be identical. Equal values may be shown once. Read-outs that look alike come from different tables or passages of the source.

Columns and labels:
AAP770 /s = experiment: ELISA: binding of free HSPG to immobilized AAP770 /s; settings: absence of test compounds, mean ± SD, read-out: Kd of HSPG complex with AAP770 /s
Procedure: (§1) To study the interaction between HSPG and either AAP770 /s, AAP751 /s, AAP695 /s or fibronectin, the AAP proteins and fibronectin were individually immobilized on polystyrene wells and incubated with increasing concentrations of purified HSPG. Fibronectin was used as a test protein because of its known affinity for HSPG. […] To address this concern, the purified protein core of HSPG in place of the intact proteoglycan was utilized to examine the role of the protein component.
(§2) The assay used in studying the interaction between HSPG and protein ligands was an ELISA technique. […] Finally, after further washing, the bound antibodies were detected by adding an alkaline phosphatase substrate solution (100 μl) containing 2 mg/ml p-nitrophenyl phosphate, 0.1 mM ZnCl2, 1 mM MgCl2 and 100 mM glycine pH 10. […] The absorbance of the released p-nitrophenol was measured at 405 nm with a Titertek Multiscan/MCC 340 (Flow Lab. Ltd.). The amounts of HSPG bound were determined by the net OD405 after substracting the OD from the blank wells in which the HSPG incubation step was omitted. When the actual amounts of HSPG bound were to be calculated, a set of standards (0.05-50 ng/well) of HSPG in NaHCO3 buffer were pre-coated into wells on the same plates as the test proteins. […]

AAP695 /s = experiment: ELISA: binding of free HSPG (intact or core protein) to immobilized AAP695 /s
Procedure: as §1
(§3) The assay used in studying the interaction between HSPG and protein ligands was an ELISA technique. Briefly, polystyrene micro-titer plates (Linbro, Flow Lab Inc.) were coated with a 100 μl solution, containing 1 μg/ml of the protein of interest (one of the three forms of AAP or fibronectin) in 20 mM NaHCO3 buffer pH 9.6. After incubation overnight at 4° C., the plates were rinsed with 0.15M NaCl, 20 mM Tris-Cl pH 7.5 (TBS). The plates were then incubated with 150 μl of 1% BSA in TBS for 2 hours at 37° C. to block the residual hydrophobic surface on the wells. After rinsing with TBS containing 0.05% (w/v) Tween 20 (TBS-Tween), 100 μl of various concentrations of HSPG in TBS-Tween were added. The plates were left overnight at 4° C., to permit maximum binding of HSPG to the coated proteins. The plates were then washed extensively and incubated for 2 hours at 37° C., with 100 μl of anti-HSPG diluted in TBS-Tween containing 0.1% BSA. […] Finally, after further washing, the bound antibodies were detected by adding an alkaline phosphatase substrate solution (100 μl) containing 2 mg/ml p-nitrophenyl phosphate, 0.1 mM ZnCl2, 1 mM MgCl2 and 100 mM glycine pH 10. […] The absorbance of the released p-nitrophenol was measured at 405 nm with a Titertek Multiscan/MCC 340 (Flow Lab. Ltd.). The amounts of HSPG bound were determined by the net OD405 after substracting the OD from the blank wells in which the HSPG incubation step was omitted. When the actual amounts of HSPG bound were to be calculated, a set of standards (0.05-50 ng/well) of HSPG in NaHCO3 buffer were pre-coated into wells on the same plates as the test proteins. […] The actual amounts of HSPG bound to the test proteins were calculated from the OD405 standard curve produced by the HSPG standards using a Titersoft II E.J.A. software program (Flow Lab. Ltd.). […]
To determine the Kd of the protein-HSPG complex, the binding data were analyzed assuming a thermodynamic equilibrium for the formation of the complex, B, from the ligand in solution, HSPG, and the uncomplexed protein adsorbed to the microtiter well, R, according to the equation: [formula] Due to the nature of the experimental design, nonspecific binding could not be measured directly. […]

BSA = experiment: ELISA control: binding of HSPG to BSA coated wells; design: species or system bovine
Procedure: The assay used in studying the interaction between HSPG and protein ligands was an ELISA technique. Briefly, polystyrene micro-titer plates (Linbro, Flow Lab Inc.) were coated with a 100 μl solution, containing 1 μg/ml of the protein of interest (one of the three forms of AAP or fibronectin) in 20 mM NaHCO3 buffer pH 9.6. After incubation overnight at 4° C., the plates were rinsed with 0.15M NaCl, 20 mM Tris-Cl pH 7.5 (TBS). The plates were then incubated with 150 μl of 1% BSA in TBS for 2 hours at 37° C. to block the residual hydrophobic surface on the wells. After rinsing with TBS containing 0.05% (w/v) Tween 20 (TBS-Tween), 100 μl of various concentrations of HSPG in TBS-Tween were added. […] Finally, after further washing, the bound antibodies were detected by adding an alkaline phosphatase substrate solution (100 μl) containing 2 mg/ml p-nitrophenyl phosphate, 0.1 mM ZnCl2, 1 mM MgCl2 and 100 mM glycine pH 10. […] The absorbance of the released p-nitrophenol was measured at 405 nm with a Titertek Multiscan/MCC 340 (Flow Lab. Ltd.). The amounts of HSPG bound were determined by the net OD405 after substracting the OD from the blank wells in which the HSPG incubation step was omitted. When the actual amounts of HSPG bound were to be calculated, a set of standards (0.05-50 ng/well) of HSPG in NaHCO3 buffer were pre-coated into wells on the same plates as the test proteins. […]

AAP751 /s = experiment: ELISA: binding of free HSPG (intact or core protein) to immobilized AAP751 /s; settings: for Kd: absence of test compounds, mean ± SD, read-out: Kd of HSPG (intact or core protein) complex with AAP751 /s
Procedure: as §1
as §3, with “added.” for “added. The plates were left overnight at 4° C., to permit maximum binding of HSPG to the coated proteins. The plates were then washed extensively and incubated for 2 hours at 37° C., with 100 μl of anti-HSPG diluted in TBS-Tween containing 0.1% BSA.”

fibronectin = experiment: ELISA: binding of free HSPG (intact or core protein) to immobilized fibronectin; design: species or system bovine; settings: absence of test compounds; mean ± SD; read-out: Kd of HSPG (intact or core protein) complex with fibronectin
Source text: Fibronectin (from bovine plasma), heparin (grade II from porcine intestinal mucosa, average molecular weight=[…]), heparan sulfate, chondroitin sulfate, dextran sulfate, BSA, and alkaline phosphatase substrate were obtained from Sigma, St. Louis, Mo. Alkaline phosphatase conjugated goat anti-rabbit IgG was obtained from Boehringer-Manneheim, and heparitinase from ICN Biochemicals.
To study the interaction between HSPG and either AAP770 /s, AAP751 /s, AAP695 /s or fibronectin, the AAP proteins and fibronectin were individually immobilized on polystyrene wells and incubated with increasing concentrations of purified HSPG. Fibronectin was used as a test protein because of its known affinity for HSPG. […]
as §2, with “omitted.” for “omitted. When the actual amounts of HSPG bound were to be calculated, a set of standards (0.05-50 ng/well) of HSPG in NaHCO3 buffer were pre-coated into wells on the same plates as the test proteins.”

“heparan sulfate proteoglycan [Intact HSPG]” was tested, and the Kd (AAP770 /s; listed as HSPG) was 9.13 nM and 9 to 10 nM, the Kd (AAP770 /s) was 9.13 ± 1.06 nM and the Kd (AAP695 /s; absence of test compounds, mean ± SD, listed as HSPG, read-out: Kd of HSPG (intact or core protein) complex with AAP695 /s) was 0.88 nM and ~0.9 nM. For the same substance, the Kd (AAP695 /s; absence of test compounds, mean ± SD, listed as intact HSPG, read-out: Kd of HSPG (intact or core protein) complex with AAP695 /s) was 0.9 ± 0.25 nM, the Kd (AAP695 /s; absence of test compounds, mean ± SD, read-out: Kd of HSPG (intact or core protein) complex with AAP695 /s) was 0.88 ± 0.35 nM and the Kd (AAP695 /s; heparin 400 μg/ml, read-out: Kd of HSPG (intact or core protein) complex with AAP695 /s in presence of heparin) was 3.56 ± 1.78 nM. For the same substance, the “binding of HSPG to BSA in comparison to the tested proteins” value (BSA) was “negligible”, the Kd (AAP751 /s; listed as HSPG) was 10.2 nM and 9 to 10 nM and the Kd (AAP751 /s) was 10.2 ± 2.45 nM. The “Bmax, total binding capacity” value (AAP751 /s; typical experiment using AAP751 /s) was 15.9±0.2 ng HSPG and the Kd (fibronectin) was 0.98 nM.
